# Data reported in US20230212549A1, “COMPOUNDS COMPRISING A […] LIGAND AND USE THEREOF” (priority 2021, published 2023).
# Numbered stars: 1 amine (or outer) side, 2 acyl side, 3 side chain; on linkers, the order of the positions; unused ones are H or OH. Bridge positions count the residues as written; N and C are the ends. Peptide text beside a SMILES is read from it. * marks the point of attachment. X13 = O=C(O)CN1CCN(CC(=O)O)CCN(CC(=O)N2CCN(Cc3cc(C[*:1])cc(C[*:2])c3)CC2)CCN(CC(=O)O)CC1; Hexanoyl = CCCCCC(=O)*
# Assays:
# [1] = 24 h incubation, 37° C.
# [2] = 24 h incubation, 37° C.; remark: listed apart in the source
# [3] = Pharmacokinetic study in mice (plasma, NCA); details: mouse, intravenous; for Vd: mouse plasma
# [4] = Pharmacokinetic study in rats (plasma, NCA); details: rat, intravenous; for Vd: rat plasma
# [5] = Plasma stability assay, mouse plasma; format: in vitro ADME; details: mouse, plasma; 24 h incubation, 37° C.; read-out: % intact compound remaining after incubation, Mouse plasma
smiles,measurement,setting,value
"CCCCCC(=O)N[C@H]1CSCc2cc(CSCCNC(=O)CN3CCN(CC(=O)O)CCN(CC(=O)O)CCN(CC(=O)O)CC3)cc(c2)CSC[C@@H](C(=O)O)NC(=O)[C@H](Cc2ccccc2)NC(=O)[C@H](CCC(N)=O)NC(=O)[C@H]([C@@H](C)O)NC(=O)[C@@H]2CCCN2C(=O)[C@@H]2CCCN2C1=O [3BP-3623, Hex-[Cys(tMeBn(InDOTA-AET))-Pro-Pro-Thr-Gln-Phe-Cys]-OH]","% intact compound remaining after incubation, Human plasma",[1],100% (24 h)
same,"% intact compound remaining after incubation, Rat plasma",[2],100% (24 h)
same,AUC(0-inf),[3]; 4 nmol/kg,0.0077 µM·h
same,C0,[3]; 4 nmol/kg,17.6 nM
same,clearance,[3]; 4 nmol/kg,8.63 mL/min/kg
same,half-life,[3]; 4 nmol/kg,35 min
same,Vd,"[3]; 4 nmol/kg, Vss, 4 nmol/kg",0.36 L/kg
same,Vd,"[3]; 4 nmol/kg, Vz",0.44 L/kg
same,AUC(0-inf),[3]; 40 nmol/kg,0.055 µM·h
same,C0,[3]; 40 nmol/kg,228 nM
same,clearance,[3]; 40 nmol/kg,12 mL/min/kg
same,half-life,[3]; 40 nmol/kg,30 min
same,Vd,"[3]; 40 nmol/kg, Vss, 40 nmol/kg",0.31 L/kg
same,Vd,"[3]; 40 nmol/kg, Vz",0.53 L/kg
same,AUC(0-inf),[3]; 400 nmol/kg,0.532 µM·h
same,C0,[3]; 400 nmol/kg,2130 nM
same,clearance,[3]; 400 nmol/kg,12.5 mL/min/kg
same,half-life,[3]; 400 nmol/kg,35 min
same,Vd,"[3]; 400 nmol/kg, Vss, 400 nmol/kg",0.2 L/kg
same,Vd,"[3]; 400 nmol/kg, Vz",0.64 L/kg
same,AUC(0-inf),[4]; 40 nmol/kg,0.074 µM·h
same,C0,[4]; 40 nmol/kg,127 nM
same,clearance,[4]; 40 nmol/kg,9.02 mL/min/kg
same,half-life,[4]; 40 nmol/kg,45 min
same,Vd,"[4]; 40 nmol/kg, Vss, 40 nmol/kg",0.48 L/kg
same,Vd,"[4]; 40 nmol/kg, Vz",0.58 L/kg
same,AUC(0-inf),[4]; 400 nmol/kg,0.738 µM·h
same,C0,[4]; 400 nmol/kg,1410 nM
same,clearance,[4]; 400 nmol/kg,9.03 mL/min/kg
same,half-life,[4]; 400 nmol/kg,71 min
same,Vd,"[4]; 400 nmol/kg, Vz",0.93 L/kg
"CCCC[C@H](NC(=O)CCC(=O)NCCCOCCOCCOCCCNC(=O)CN1CCN(CC(=O)O)CCN(CC(=O)O)CCN(CC(=O)O)CC1)C(=O)N[C@H]1CSCc2cccc(c2)CSC[C@@H](C(=O)NCCC(=O)O)NC(=O)[C@H](Cc2ccccc2)NC(=O)[C@H](CCC(N)=O)NC(=O)[C@H]([C@@H](C)O)NC(=O)[C@@H]2CCCN2C(=O)[C@@H]2CCCN2C1=O [3BP-3398, DOTA-Ttds-Nle-[Cys(3MeBn)-Pro-Pro-Thr-Gln-Phe-Cys]-Bal-OH]","% intact compound remaining after incubation, Human plasma",[1],99% (24 h)
"CCCCCC(=O)N[C@H]1CSCc2cc(CSCCNC(=O)CN3CCN(CC(=O)O)CCN(CC(=O)O)CCN(CC(=O)O)CC3)cc(c2)CSC[C@@H](C(=O)O)NC(=O)[C@H](Cc2ccccc2)NC(=O)[C@H](CCC(N)=O)NC(=O)[C@H]([C@@H](C)O)NC(=O)[C@@H]2CCCN2C(=O)[C@@H]2CCCN2C1=O [3BP-3624, Hex-[Cys(tMeBn(LuDOTA-AET))-Pro-Pro-Thr-Gln-Phe-Cys]-OH]","% intact compound remaining after incubation, Human plasma",[1],100% (24 h)
same,"% intact compound remaining after incubation, Rat plasma",[2],100% (24 h)
"CCCCCC(=O)N[C@H]1CSCc2cccc(c2)CSC[C@@H](C(=O)N[C@@H](CCCCNC(=O)CN2CCN(CC(=O)O)CCN(CC(=O)O)CCN(CC(=O)O)CC2)CC(=O)O)NC(=O)[C@H](Cc2ccccc2)NC(=O)[C@H](CCC(N)=O)NC(=O)[C@H]([C@@H](C)O)NC(=O)[C@@H]2CCCN2C(=O)[C@@H]2CCCN2C1=O [3BP-3397, Hex-[Cys(3MeBn)-Pro-Pro-Thr-Gln-Phe-Cys]-Bhk(DOTA)-OH]","% intact compound remaining after incubation, Human plasma",[1],100% (24 h)
"CCCCCC(=O)N[C@H]1CSCc2cc(cc(CN3CCN(C(=O)CN4CCN(CC(=O)O)CCN(CC(=O)O)CCN(CC(=O)O)CC4)CC3)c2)CSC[C@@H](C(=O)N[C@@H](CC(=O)O)C(N)=O)NC(=O)[C@H](Cc2ccccc2)NC(=O)[C@H](CCC(N)=O)NC(=O)[C@H]([C@@H](C)O)NC(=O)[C@@H]2CCCN2C(=O)[C@@H]2CCCN2C1=O [3BP-3590, Hex-[Cys(tMeBn(InDOTA-PP))-Pro-Pro-Thr-Gln-Phe-Cys]-Asp-NH2] (Hexanoyl-CPPTQFCD-NH2; linker 1-7 via X13)","remaining at 24 h, 9.8 µM",[5],100%
same,"% intact compound remaining after incubation, Human plasma",[1],94% (24 h)
same,"% intact compound remaining after incubation, Rat plasma",[2],100% (24 h)
